Where “and” joins values, the source holds several entries; their conditions need not be identical. Equal entries are not always repeated.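 Protocol summary: plate cells (96-well), add compound at 5 concentrations, incubate 48 h, interpolate endpoints linearly. Abbreviation: GI50, concentration required for 50% inhibition of growth. TGI is the concentration that stops growth completely.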 Where only a bound is given, the exact number is not on record here.

Test systems include SF-268 CNS; MALME-3M melanoma; SK-MEL-5 melanoma; 786-0 renal; UACC-257 melanoma; SK-OV-3 ovarian; CAKI-1 renal; HOP-62 NSCLC; LOX IMVI melanoma; EKVX NSCLC.
What all share (test): inhibition of tumour cell growth, NCI panel, 48 h

Turning to `Cc1cnc(NC(=O)C(Cc2ccccc2)NC(=O)c2ccccc2)s1` (centres undefined), the GI50 in the test on SF-268 CNS was 23.2 µM; in the test on MALME-3M melanoma, 24.2 µM; in the test on SK-MEL-5 melanoma, 1.69 µM; in the test with 786-0 renal, 15.1 µM; with UACC-257 melanoma, 1.14 µM; in the test with SK-OV-3 ovarian, 22.9 µM. Moreover, the GI50 in the test on CAKI-1 renal is 33 µM; with HOP-62 NSCLC, 10 µM; with LOX IMVI melanoma, 6.25 µM; in the test on EKVX NSCLC it was 19.5 µM. The TGI in the test on SF-268 CNS was 54.7 µM; in the test with MALME-3M melanoma it was > 100 µM; in the test on SK-MEL-5 melanoma, 3.85 µM; with 786-0 renal it was 76.2 µM; in the test with UACC-257 melanoma, 3.16 µM; in the test with SK-OV-3 ovarian, 71.6 µM. Further, the TGI is > 100 µM in the test with CAKI-1 renal, 28 µM with HOP-62 NSCLC, 19.3 µM with LOX IMVI melanoma and 47.6 µM with EKVX NSCLC.
`O=C(Nc1ccc(F)cc1F)c1cc(I)ccc1O`: the GI50 in the test with SF-268 CNS was 3 µM; with MALME-3M melanoma it was 2.08 µM; in the test on SK-MEL-5 melanoma it was 1.7 µM; in the test on 786-0 renal, 3.13 µM; in the test with UACC-257 melanoma, 2.09 µM; in the test with SK-OV-3 ovarian, 1.12 µM. Besides, the GI50 in the test with CAKI-1 renal was 1.92 µM; in the test with HOP-62 NSCLC, 2.42 µM; with LOX IMVI melanoma it was 3.31 µM; with EKVX NSCLC, 2.19 µM. Further, the TGI with SF-268 CNS is 47.4 µM; with MALME-3M melanoma, 6.45 µM; with SK-MEL-5 melanoma, 3.35 µM; with 786-0 renal, 9.7 µM; in the test on UACC-257 melanoma, 7.09 µM; with SK-OV-3 ovarian it was 4.27 µM. Moreover, the TGI came out at 6.49 µM in the test with CAKI-1 renal, 7.87 µM with HOP-62 NSCLC, 17.6 µM in the test with LOX IMVI melanoma and 9.14 µM in the test on EKVX NSCLC.
For the compound `COc1ccc2c(c1)C(=O)/C(=C/c1ccc(OCC(=O)Nc3nccs3)cc1)O2`, the GI50 was 0.858 µM in the test with MALME-3M melanoma; 2.93 µM in the test on SK-MEL-5 melanoma; 0.237 µM in the test with 786-0 renal; 18 µM in the test on UACC-257 melanoma; 17.4 µM with SK-OV-3 ovarian; 0.392 µM in the test with CAKI-1 renal. Moreover, the GI50 in the test with HOP-62 NSCLC is 0.491 µM; with LOX IMVI melanoma it was 0.057 µM; in the test with EKVX NSCLC it was 2.04 µM. For the same compound, the TGI is 4.15 µM in the test with MALME-3M melanoma; 16.3 µM in the test with SK-MEL-5 melanoma; 0.563 µM in the test with 786-0 renal; 36.6 µM in the test with UACC-257 melanoma; > 95.4 µM in the test with SK-OV-3 ovarian; 26 µM with HOP-62 NSCLC. In the test with LOX IMVI melanoma, this compound showed a TGI of 0.108 µM.
For `CCCCCCCC(=O)SCC/C=C/[C@@H]1CC(=O)NCc2cccc(n2)C2=N[C@@](C)(CS2)C(=O)N[C@@H](C(C)C)C(=O)N1`, the GI50 with SF-268 CNS was 2.28 µM; in the test on MALME-3M melanoma it was 0.142 µM; in the test with SK-MEL-5 melanoma it was 0.924 µM; in the test with 786-0 renal, 5.52 µM; in the test with SK-OV-3 ovarian it was 1.23 µM; in the test with CAKI-1 renal it was 16.9 µM. The GI50 in the test on HOP-62 NSCLC was 1.07 µM; in the test with LOX IMVI melanoma, 0.774 µM; with EKVX NSCLC, 1.75 µM. Besides, the TGI is > 33.3 µM with SF-268 CNS; 2.37 µM in the test on MALME-3M melanoma; 8.35 µM in the test with SK-MEL-5 melanoma; > 33.3 µM with 786-0 renal; 11 µM in the test on SK-OV-3 ovarian; > 33.3 µM in the test on CAKI-1 renal. Besides, the TGI was > 33.3 µM in the test on HOP-62 NSCLC, 4.01 µM with LOX IMVI melanoma and > 33.3 µM with EKVX NSCLC.
As for `COc1ccc(-c2cc(=O)c3ccc(O)cc3o2)c(OC)c1OC`, the TGI in the test with SF-268 CNS, in the test on MALME-3M melanoma, with 786-0 renal, in the test with UACC-257 melanoma, with SK-OV-3 ovarian and in the test on CAKI-1 renal was > 100 µM throughout. The TGI in the test with HOP-62 NSCLC, in the test on LOX IMVI melanoma and in the test on EKVX NSCLC was > 100 µM throughout.
On to `CC(=O)OC(C)C(=O)C1c2cccc(O)c2C(=O)c2c(O)cc(C)cc21` (centres undefined), for which the TGI worked out at 1.5 µM with SF-268 CNS; 1.82 µM with MALME-3M melanoma; 1.31 µM in the test on SK-MEL-5 melanoma; 2.28 µM with 786-0 renal; 1.4 µM in the test on UACC-257 melanoma; 1.81 µM in the test on SK-OV-3 ovarian. The TGI amounted to 1.01 µM with HOP-62 NSCLC, 1.82 µM in the test on LOX IMVI melanoma and 4.09 µM in the test on EKVX NSCLC.
With `O=C(N/C(=C\c1cc(Cl)ccc1Cl)c1nc2[nH]c(=S)[nH]c(=O)c2[nH]1)c1ccccc1`, the TGI in the test on SF-268 CNS was > 100 µM; with MALME-3M melanoma it was > 100 µM; in the test with SK-MEL-5 melanoma it was > 100 µM; in the test on 786-0 renal, 32.2 µM; in the test on SK-OV-3 ovarian, > 100 µM; with CAKI-1 renal it was > 100 µM. In addition, the figures for the TGI in the test on HOP-62 NSCLC, in the test on LOX IMVI melanoma and in the test on EKVX NSCLC were > 100 µM, 91.6 µM and > 79.6 µM, respectively.
As to `CCc1ccc2c(c1)C(=O)c1c-2n(CCCBr)c(=O)c2cc([N+](=O)[O-])ccc12`, the GI50 was 15.9 µM with SF-268 CNS; 18.5 µM in the test with MALME-3M melanoma; > 50 µM with SK-MEL-5 melanoma; 23.4 µM in the test with 786-0 renal; > 50 µM with UACC-257 melanoma; > 50 µM with CAKI-1 renal. Moreover, the GI50 in the test on HOP-62 NSCLC was 21.3 µM; in the test with LOX IMVI melanoma it was > 50 µM; in the test with EKVX NSCLC, > 50 µM. Moreover, the TGI in the test on SF-268 CNS, in the test on MALME-3M melanoma, with SK-MEL-5 melanoma, in the test with 786-0 renal, with UACC-257 melanoma and in the test with CAKI-1 renal was > 50 µM in each case. Moreover, the TGI in the test on HOP-62 NSCLC, in the test on LOX IMVI melanoma and with EKVX NSCLC was > 50 µM each time.
For `COC(=O)[C@@H](C)C[C@H](Cc1ccc(F)cc1)NC(=O)c1csc([C@@H](C[C@H](C(C)C)N(C)C(=O)[C@@H](NC(=O)[C@H]2CCCCN2C)C(C)C)OC(C)=O)n1`, the GI50 in the test with SF-268 CNS was 0.00441 µM and 0.00923 µM; in the test with MALME-3M melanoma it was 4.51 µM; in the test with 786-0 renal it was 0.00319 µM and 0.0147 µM; in the test on UACC-257 melanoma, > 16.7 µM; with SK-OV-3 ovarian, 0.00736 µM and 0.0553 µM; with HOP-62 NSCLC it was 0.00187 µM and 0.0102 µM. Besides, the GI50 with LOX IMVI melanoma is 0.00184 µM and 0.0095 µM. For the same compound, the TGI with SF-268 CNS, with MALME-3M melanoma, in the test with 786-0 renal, with UACC-257 melanoma, with SK-OV-3 ovarian and with HOP-62 NSCLC was > 16.7 µM each time. For the same compound, the TGI with LOX IMVI melanoma and in the test with EKVX NSCLC was > 16.7 µM throughout.
